# From patent publication US6784155B1, “Inhibitor and stimulator of stem cell proliferation and uses thereof” (Wellstat Therapeutics Corporation, priority 1996, dated 2004)
# No end group written: not given here.
# Tests used:
# CFU-MIX [1] = experiment: CFU-MIX cycling assay after in vivo injection into testosterone or 5FU treated mice; design: species or system mouse
# Description: In order to test the ability of purified porcine hemoglobin chains to act in vivo, BDF1 mice were injected with testosterone propionate as described in Example 1. Twenty four hours later, mice received 500 ng of either pINPROL, porcine hemoglobin alpha chain (purified from peripheral red blood cells as in FIG. 21), porcine beta chain (purified from peripheral red blood cells as in FIG. 21) or the equivalent volume of carrier intravenously. Forty eight hours later the bone marrow from each mouse was harvested and the CFU-MIX assay conducted as described in Example 14.
# To assess the stem cell inhibitory activity of peptide 43-55 in vivo, B6D2 F1 mice were pre-treated with testosterone propionate as described in Example 1 or with 5FU. Specifically, testosterone propionate (100 mg/kg body weight) was injected i.p. on Day 0 into mice. Alternatively, mice were injected on Day 0 with 5FU ([…] body weight).
# 24 hours later (Day 1), varying doses of peptide 43-55 or vehicle were injected i.v. Bone marrow was harvested on Day 2 and the […] cycling assay conducted as in Example 14. Specifically, mice were sacrificed and single cell bone marrow suspensions prepared from the femurs. The cells were washed once and the concentration adjusted to 5×10^6 cells/ml in Fischer medium. For each test condition, one milliliter of cells was added to each of two polypropylene tubes. The tubes were incubated at 37° C. for 3 hours without (“Control”) or with (“Experimental”) the appropriate concentration of test substance. At the end of the incubation, 30 μg/ml of cytosine arabinoside (“Ara C” (Sigma)) was added to half of the tubes and the same volume of Fischer's medium was added to the others. The tubes were incubated for a further 1 hour at 37° C., after which they were placed on ice and washed twice with cold Fischer medium.
# The cells were readjusted to 5×10^4-10^6/ml in Fischer's medium and 0.5 ml of cell suspension added to 5 ml of Methocult M3430 methylcellulose medium (Stem Cell Technologies, Vancouver, British Columbia). The mixture was vigorously mixed with a vortex and 1 ml was dispensed into each of five 35 mm dishes. The 35 mm dishes were in turn placed in a covered 150 mm dish with one open 35 mm dish containing sterile water. CFU-MIX colonies were counted with the use of an inverted microscope after 7 days of incubation at 37° C.
# Differences in colony number between the tubes treated with medium versus the tubes treated with Ara C represent the percentage of cells in cycle under that condition according to the formula: […]
# [2] = Distribution of ubiquitin fusion proteins between soluble fraction and precipitate of E. coli lysate (SDS-PAGE); type: physicochemical; details: after centrifugation of the bacterial lysate
# Description: To obtain protein for assay, 100 ml starter cultures in 250 ml shake flasks were grown from single colonies by overnight incubation (16-20 hours) in 2×YT medium with ampicillin (100 μg/ml), neomycin (10 μg/ml) and 1% glucose. Shaker flask cultures were maintained at 30° C. and 250 rpm in a New Brunswick environmental shaker incubator. The next morning the culture was diluted to liter with medium Cells were induced by IPTG addition to 1 mM (final dilution) at OD600=0.5 and harvested at OD600=0.8 by centrifugation. The harvested cells were resuspended in hypotonic lysis buffer (100 μl of 50 mM Tris, pH 10.0). The bacterial cells were lysed by subjecting the suspension to three cycles of freeze-thaw (dry ice-ethanol bath for freezing and 60° C. for thawing). The suspension was then sonicated for 10 min and centrifuged at 12,000 g for 10 min. The resulting supernatant was designated as “S1”. The cell pellet was resuspended in 50 mM Tris, pH10 and 2×SDS tricine loading buffer (Novex, San Diego, Calif.) (1:1). The mixture was then heated at 95° C. for 15 min and centrifuged at 12,000 g for 10 min. The portion of the precipitate capable of being resolubilized in this manner was called “P1”. The portion of the precipitate derived from the remaining pellet was called “P2”. P2 was resuspended in loading buffer as for P1. Samples from S1, P1 and P2 were analyzed by SDS-PAGE. […]
# CFU-MIX [3] = experiment: Stimulation of cycling of quiescent murine stem cells, CFU-MIX cycling assay in vitro; type: cell-based, mouse; details: Table 44, 100 ng/ml, alone
substance,measurement,setting,value
"FPHFDLSHGSAQV [Peptide 43-55, amino acids 43-55 of human alpha hemoglobin]",% Kill,"CFU-MIX [1]; Table 22, testosterone-pretreated animals, 0.5 ng i.v. per 20 gram mouse",0%
same,% Kill,"CFU-MIX [1]; Table 23, 5FU-pretreated animals, 0.5 ng i.v. per 20 gram mouse",3%
same,fraction of bacterial lysate containing the peptide,[2],contained in the soluble fraction
"Human alpha chain: purified, non-recombinant human alpha hemoglobin chain isolated by reversed-phase HPLC",% Kill,"CFU-MIX [1]; Table 14, testosterone-treated BDF1 mice, 500 ng/mouse",−22%
same,% Kill,"CFU-MIX [1]; Table 22, testosterone-pretreated animals, 500 ng i.v. per 20 gram mouse",13%
same,% Kill,"CFU-MIX [1]; Table 23, 5FU-pretreated animals, 500 ng i.v. per 20 gram mouse",0%
same,% Kill,CFU-MIX [3],48%
